Experimental data taken from patent US12448391B2, “Bicyclic derivatives for treating endoparasites” (Elanco Tiergesundheit AG, priority 2019, dated 2025).

Columns and labels:
[1] = system: Caenorhabditis elegans; experiment: C. elegans development assay (Ce DA); conditions: 48 h, read-out: EC90 (motility reduction)
Description: Caenorhabditis elegans (Ce): C. elegans development assay (Ce DA) measures the effect of compounds on developing nematodes. Eggs of C. elegans are deposited in a 384 well plate together with food (E. coli) and the treatment formulated in DMSO. Plates are incubated at 25° C. for 48 h to allow the development of nematodes up to the L4-stage. The effect of compounds is measured as motility reduction. Efficacy is expressed in % motility reduction compared to negative controls.

[2] = system: H. contortus larvae; experiment: H. contortus Larval Development Assay (Hc LDA); conditions: Haemonchus contortus, read-out: EC50 (motility inhibition)
Description: Ruminant Gastrointestinal (H. contortus Larval Development Assay (Hc LDA)):
H.c. eggs isolated from lamb fecal matter are allowed to hatch overnight. Test compounds are diluted in DMSO and added to a 96-well plate containing appropriate media. H.c. larvae are added to each well and plates are incubated for the desired time(s). Motility is assessed using an LCD camera imaging system. Percent motility inhibition values are generated relative to the average of the DMSO-only wells.

[3] = system: D. immitis microfilariae; experiment: Dog heart worm microfilariae motility assay; type: cell-based; conditions: Dirofilaria immitis, read-out: EC50 (motility inhibition)

SMILES | EC90 [1] [µg/mL] | EC50 [2] [µg/mL] | EC50 [3] [µg/mL]
O=C(NN1CCOc2ccccc21)c1cnc2c(-c3cc(F)c(F)c(F)c3)c(F)ccc2c1N1CCOCC1 [Example 5.41, N-(2,3-dihydro-1,4-benzoxazin-4-yl)-7-fluoro-4-morpholino-8-(3,4,5-trifluorophenyl)quinoline-3-carboxamide] | < 1 |  | 
CN(C)c1c(C(=O)NN2CCOc3ccccc32)cnc2c(-c3cc(Cl)c(F)c(Cl)c3F)c(F)ccc12 [Example 5.56, 8-(3,5-dichloro-2,4-difluoro-phenyl)-N-(2,3-dihydro-1,4-benzoxazin-4-yl)-4-(dimethylamino)-7-fluoro-quinoline-3-carboxamide] | < 1 |  | 
O=C(NN1CCOc2ccccc21)c1cnc2c(-c3ccc(C(F)(F)F)cc3)cccc2c1N1CCOCC1 [Example 5.63, N-(2,3-dihydro-1,4-benzoxazin-4-yl)-4-morpholino-8-[4-(trifluoromethyl)phenyl]quinoline-3-carboxamide] | < 1 |  | 
N#Cc1ccc2c(N3CCOCC3)c(C(=O)NN3CCOc4ccccc43)cnc2c1-c1cc(Cl)cc(Cl)c1 [Example 5.35, 7-cyano-8-(3,5-dichlorophenyl)-N-(2,3-dihydro-1,4-benzoxazin-4-yl)-4-morpholino-quinoline-3-carboxamide] | < 1 |  | 
O=C(NN1CCOc2ccccc21)c1cnc2c(-c3cc(F)cc(F)c3F)cccc2c1C1CCOCC1 [Example 5.45, N-(2,3-dihydro-1,4-benzoxazin-4-yl)-4-tetrahydropyran-4-yl-8-(2,3,5-trifluorophenyl)quinoline-3-carboxamide] | < 1 |  | 
CON(C)c1c(C(=O)NN2CCOc3ccccc32)cnc2c(-c3cc(Cl)c(F)c(Cl)c3F)c(F)ccc12 [Example 5.62, 8-(3,5-dichloro-2,4-difluoro-phenyl)-N-(2,3-dihydro-1,4-benzoxazin-4-yl)-7-fluoro-4-[methoxy(methyl)amino]quinoline-3-carboxamide] | < 1 |  | 
COC(C)c1c(C(=O)NN2CCOc3ccccc32)cnc2c(-c3cc(F)cc(F)c3F)cccc12 (stereo not drawn) [Example 5.55, N-(2,3-dihydro-1,4-benzoxazin-4-yl)-4-(1-methoxyethyl)-8-(2,3,5-trifluorophenyl)quinoline-3-carboxamide] | < 1 |  | 
O=C(NN1CCOc2ccccc21)c1cnc2c(-c3cc(Cl)cc(C(F)(F)F)c3)c(F)ccc2c1N1CCOCC1 [Example 5.61, 8-[3-chloro-5-(trifluoromethyl)phenyl]-N-(2,3-dihydro-1,4-benzoxazin-4-yl)-7-fluoro-4-morpholino-quinoline-3-carboxamide] | < 1 |  | 
CN(C)c1c(C(=O)NN2CCOc3ccccc32)cnc2c(-c3cc(Cl)cc(Cl)c3)cccc12 [Example 5.1, 8-(3,5-dichlorophenyl)-N-(2,3-dihydro-4H-benzo[b][1,4]oxazin-4-yl)-4-(dimethylamino)quinoline-3-carboxamide] |  | < 1 | < 0.1
O=C(NN1CCOc2ccccc21)c1cnc2c(-c3cc(Cl)cnc3F)cccc2c1N1CCOCC1 [Example 5.14, 8-(5-chloro-2-fluoro-3-pyridyl)-N-(2,3-dihydro-1,4-benzoxazin-4-yl)-4-morpholino-quinoline-3-carboxamide] |  | < 1 | < 0.1
O=C(NN1CCOc2ccccc21)c1cnc2c(-c3cc(Cl)c(F)c(Cl)c3)nccc2c1N1CCOCC1 [Example 2.8, 8-(3,5-dichloro-4-fluoro-phenyl)-N-(2,3-dihydro-1,4-benzoxazin-4-yl)-4-morpholino-1,7-naphthyridine-3-carboxamide] |  | < 1 | < 0.1
O=C(NN1CCOc2ccccc21)c1cnc2c(-c3cc(Cl)cc(C(F)(F)F)n3)cccc2c1N1CCOCC1 [Example 5.22, 8-[4-chloro-6-(trifluoromethyl)-2-pyridyl]-N-(2,3-dihydro-1,4-benzoxazin-4-yl)-4-morpholino-quinoline-3-carboxamide] |  | < 1 | < 0.1
O=C(NN1CCc2ccccc21)c1cnc2c(-c3cc(F)cc(F)c3F)cccc2c1N1CCOCC1 [Example 5.24, N-indolin-1-yl-4-morpholino-8-(2,3,5-trifluorophenyl)quinoline-3-carboxamide] |  | < 1 | < 0.1
O=C(NN1CCOc2ccccc21)c1cnc2c(-c3cc(Cl)cc(Cl)c3)ccnc2c1N1CCOCC1 [Example 3.3, 8-(3,5-dichlorophenyl)-N-(2,3-dihydro-1,4-benzoxazin-4-yl)-4-morpholino-1,5-naphthyridine-3-carboxamide] |  | < 1 | < 0.1
CON(C)c1c(C(=O)NN2CCOc3ccccc32)cnc2c(-c3cc(F)cc(F)c3F)nccc12 [Example 2.5, N-(2,3-dihydro-1,4-benzoxazin-4-yl)-4-[methoxy(methyl)amino]-8-(2,3,5-trifluorophenyl)-1,7-naphthyridine-3-carboxamide] |  | < 1 | < 0.1
O=C(NN1CCOc2ccccc21)c1cnc2c(-c3cc(F)cc(F)c3F)ccnc2c1N1CCOCC1 [Example 3.4, N-(2,3-dihydro-1,4-benzoxazin-4-yl)-4-morpholino-8-(2,3,5-trifluorophenyl)-1,5-naphthyridine-3-carboxamide] |  | < 1 | < 0.1

SMILES | EC90 [1] [µg/mL] | EC50 [2] [µg/mL] | EC50 [3] [µg/mL]
O=C(NN1CCOc2ccccc21)c1cnc2c(-c3cncc(F)c3Cl)cccc2c1N1CCOCC1 [Example 5.21, 8-(4-chloro-5-fluoro-3-pyridyl)-N-(2,3-dihydro-1,4-benzoxazin-4-yl)-4-morpholino-quinoline-3-carboxamide] |  | < 1 | < 0.1
CN(C)c1c(C(=O)NN2CCOc3ccccc32)cnc2c(-c3cc(Cl)cc(Cl)c3)nccc12 [Example 2.1, 8-(3,5-dichlorophenyl)-N-(2,3-dihydro-1,4-benzoxazin-4-yl)-4-(dimethylamino)-1,7-naphthyridine-3-carboxamide] |  | < 1 | < 0.1
O=C(NN1CCOc2ccccc21)c1cnc2c(-c3cc(Cl)cc(Cl)c3)nccc2c1N1CCOCC1 [Example 2.3, 8-(3,5-dichlorophenyl)-N-(2,3-dihydro-1,4-benzoxazin-4-yl)-4-morpholino-1,7-naphthyridine-3-carboxamide] |  | < 1 | < 0.1
CN(C)c1c(C(=O)NN2CCCc3ccccc32)cnc2c(-c3cc(Cl)cc(Cl)c3)nccc12 [Example 2.2, 8-(3,5-dichlorophenyl)-N-(3,4-dihydro-2H-quinolin-1-yl)-4-(dimethylamino)-1,7-naphthyridine-3-carboxamide] |  | < 1 | < 0.1
O=C(NN1CCOc2ccccc21)c1cnc2c(-c3cc(Cl)cc(Cl)c3)cccc2c1N1CCOCC1 [Example 5.3, 8-(3,5-dichlorophenyl)-N-(2,3-dihydro-1,4-benzoxazin-4-yl)-4-morpholino-quinoline-3-carboxamide] |  | < 1 | < 0.1
O=C(NN1CCOc2ccccc21)c1cnc2c(-c3cc(Cl)cc(Cl)c3)cncc2c1N1CCOCC1 [Example 7.1, 8-(3,5-dichlorophenyl)-N-(2,3-dihydro-1,4-benzoxazin-4-yl)-4-morpholino-1,6-naphthyridine-3-carboxamide] |  | < 1 | < 0.1
O=C(NN1CCOc2ccccc21)c1cnc2c(-c3cc(Cl)cc(Cl)c3F)cccc2c1N1CCOCC1 [Example 5.13, 8-(3,5-dichloro-2-fluoro-phenyl)-N-(2,3-dihydro-1,4-benzoxazin-4-yl)-4-morpholino-quinoline-3-carboxamide] |  | < 1 | < 0.1
CN(C)c1c(C(=O)NN2CCOc3ccccc32)cnc2c(-c3cc(Cl)cc(Cl)c3)ccnc12 [Example 3.1, 8-(3,5-dichlorophenyl)-N-(2,3-dihydro-1,4-benzoxazin-4-yl)-4-(dimethylamino)-1,5-naphthyridine-3-carboxamide] |  | < 1 | < 0.1
O=C(NN1CCOc2ccccc21)c1cnc2c(-c3cc(Cl)cc(C(F)(F)F)c3)nccc2c1N1CCOCC1 [Example 2.6, 8-[3-chloro-5-(trifluoromethyl)phenyl]-N-(2,3-dihydro-1,4-benzoxazin-4-yl)-4-morpholino-1,7-naphthyridine-3-carboxamide] |  | < 1 | < 0.1
O=C(NN1CCOc2ccccc21)c1cnc2c(-c3cc(F)cc(F)c3)c(F)ccc2c1N1CCOCC1 [Example 5.8, 8-(3,5-difluorophenyl)-N-(2,3-dihydro-1,4-benzoxazin-4-yl)-7-fluoro-4-morpholino-quinoline-3-carboxamide] |  | < 1 | < 0.1
O=C(NN1CCOc2ccccc21)c1cnc2c(-c3cc(F)cc(F)c3F)cccc2c1N1CCS(=O)(=O)CC1 [Example 5.15, N-(2,3-dihydro-1,4-benzoxazin-4-yl)-4-(1,1-dioxo-1,4-thiazinan-4-yl)-8-(2,3,5-trifluorophenyl)quinoline-3-carboxamide] |  | < 1 | < 0.1
O=C(NN1CCOc2ccccc21)c1cnc2c(-c3cncc(Cl)c3Cl)cccc2c1N1CCOCC1 [Example 5.18, 8-(4,5-dichloro-3-pyridyl)-N-(2,3-dihydro-1,4-benzoxazin-4-yl)-4-morpholino-quinoline-3-carboxamide] |  | < 1 | < 0.1
O=C(NN1CCOc2ccccc21)c1cnc2c(-c3cncc(Cl)n3)cccc2c1N1CCOCC1 [Example 5.17, 8-(6-chloropyrazin-2-yl)-N-(2,3-dihydro-1,4-benzoxazin-4-yl)-4-morpholino-quinoline-3-carboxamide] |  | < 1 | < 0.1
O=C(NN1CCOc2ccccc21)c1cnc2c(-c3cc(Cl)cc(Cl)c3)c(F)ccc2c1N1CCOCC1 [Example 5.7, 8-(3,5-dichlorophenyl)-N-(2,3-dihydro-1,4-benzoxazin-4-yl)-7-fluoro-4-morpholino-quinoline-3-carboxamide] |  | < 1 | < 0.1
O=C(NN1CCOc2ccccc21)c1cnc2c(-c3cc(Cl)cc(Cl)c3)ncnc2c1N1CCOCC1 [Example 6.1, 4-(3,5-dichlorophenyl)-N-(2,3-dihydro-1,4-benzoxazin-4-yl)-8-morpholino-pyrido[3,2-d]pyrimidine-7-carboxamide] |  | < 1 | < 0.1
